Experimental data published in US10287585B2, “Therapy” (priority 2015, dated 2019).
Entries after “also recorded” stand apart in the source; their conditions may differ.

Columns and labels:
Format in all cases: in vivo
E. coli CFT073 [1] = assay: Treatment of Irf3−/− mice after intravesical E. coli CFT073 infection: Irf7 siRNA compared with antibiotic therapy (Example 5); details: for number (frequency) of abscesses: siRNA intravenously and intravesically 24 hours and 4 days after infection, vs untreated
Method: Irf7 siRNA treatment was compared with antibiotic therapy. Groups of 6 Irf3^−/− mice were treated intravenously and intravesically with siRNA as described in Example 3, 24 hours and 4 days after intravesical infection with E. coli CFT073. The 24 hour time point corresponds to the time of acute symptoms, when patients are first diagnosed with febrile urinary tract infection (UTI) and treatment is initiated.
Also at that time, and following infection with E. coli CFT073, Irf3 mice were treated with the third-generation cephalosporin broad-spectrum antibiotic, Cefotaxime (STRAGEN Nordic A/S) at a dose of 100 or 400 mg/kg body weight. Cefotaxime was given by intraperitoneal injection twice a day for 6 days starting 24 hours after infection.
After 7 days, the mice were sacrificed, and kidney pathology and inflammation as quantified by neutrophil numbers in urine was assessed. Bacterial clearance was also assessed in SiRNA treated mice by measuring bacterial counts in urine. The results are shown in FIGS. 9A-E and 10A-D respectively.

E. coli CFT073 [2] = assay: Irf7 siRNA therapy given before intravesical E. coli CFT073 infection of susceptible Irf3−/− mice (Example 3)
Method: Anesthetized mice (Isofluoran) were infected by intravesical inoculation with E. coli CFT073 (10^8 CFU in 0.1 mL) as described (Hagberg et al., Infection and immunity (1983) 40, 273-283). Overnight static cultures of E. coli CFT073 in Luria broth were used for animal inoculations.
Animals were sacrificed after 7 days under anesthesia, kidneys were aseptically removed and macroscopic pathology was documented by photography. Tissues were divided for RNA extraction (on dry ice), histology and immunostaining (in O.C.T. compound, VWR) and frozen in separate vials at −80° C. Infection was assessed by viable counts of homogenized whole kidney (in 5 mL PBS). Urine samples were collected prior to and at regular times after infection and quantitatively cultured. Neutrophil numbers were quantified in uncentrifuged urine by use of a hemocytometer.
siRNA therapy was used to confirm the role of Irf7 in pathology. Irf3^−/− mice were subjected to siRNA treatment at a dose of 5 mg/kg. A dose (300 μL) of Silencer Select Pre-designed Irf7 siRNA (Life Technologies, 4404010 #s79411) was injected into the tail vein (200 μL) and intravesically (100 μL), three days prior to and on the day of infection with Invivofectamine reagent (Life Technologies, 1377501) (FIG. 5A). The siRNA used was as follows:
(§1) Ambion In Vivo Negative Control siRNA was given as a control (Life Technologies, 4457287). For transcriptomic analysis, total RNA was isolated from the kidney of Irf3^−/− mice using mirVana miRNA Isolation Kit (Ambion by Life Technologies) followed by organic extraction using Acid-Phenol:Chloroform. The analysis was done in-house using Mouse Genome 430 PM array strips and GeneAtlas system (Affymetrix).
After 7 days following infection, mice were sacrificed. The disease phenotype was defined by macroscopic kidney pathology, number of abscesses, bacterial counts in urine and kidneys, urine neutrophil numbers and tissue imaging (FIGS. 5B and 5D). Irf7 siRNA-treated mice were compared to infected controls receiving irrelevant siRNA with Invivofectamine® or no treatment.

[3] = tested on: pro-inflammatory genes and pathology network genes; assay: Whole genome transcriptomic analysis of kidneys from Irf7 siRNA treated mice
Description: as §1

STAT3 = assay: Immunohistochemistry of submucosal STAT3 in kidneys of siRNA treated mice; details: Irf3−/− mice, 7 days after infection
IRF-7 = assay: Immunohistochemistry of IRF-7 in renal pelvic mucosa of siRNA treated mice; details: Irf3−/− mice, 7 days after infection
[4] = Cefotaxime 100 or 400 mg/kg intraperitoneal twice a day for 6 days starting 24 hours after infection, 7 days
[5] = Irf3−/− mice, siRNA 5 mg/kg three days prior to and on the day of infection, 7 days after infection
[6] = immunohistochemistry 7 days after infection, vs negative control siRNA treated or untreated Irf3−/− mice
[7] = kidneys of Irf7 siRNA treated Irf3−/− mice infected with CFT073 vs untreated controls
[8] = abscesses, 7 days after infection
[9] = siRNA 24 hours and 4 days after infection, 7 days

## CO/N=C(\C(=O)N[C@@H]1C(=O)N2C(C(=O)O)=C(COC(C)=O)CS[C@H]12)c1csc(N)n1 [Cefotaxime, reference compound]
E. coli CFT073 [1]; [4]
  frequency of abscesses: reduced
  neutrophil numbers in urine (inflammation): reduced

## Irf7 siRNA: Silencer Select Pre-designed Irf7 siRNA (Life Technologies, 4404010 #s79411); sense GUGUUUACGAGGAACCCUAtt, antisense UAGGGUUCCUCGUAAACACgg; delivered with Invivofectamine (sense GUGUUUACGAGGAACCCUATT; antisense UAGGGUUCCUCGUAAACACGG; chemistry not given here)
E. coli CFT073 [2]; Irf3−/− mice, siRNA 5 mg/kg tail vein + intravesically, three days prior to and on the day of infection, 7 days after infection, vs irrelevant siRNA or untreated
  macroscopic kidney pathology and tissue damage: Reduction
E. coli CFT073 [2]; [5]
  bacterial counts in urine and renal tissue: reduction; also recorded: lower
  neutrophil recruitment (neutrophil numbers in urine): reduction; also recorded: reduced
E. coli CFT073 [2]; Irf3−/− mice, siRNA three days prior to and on the day of infection, 7 days after infection, n=3-8
  frequency of abscesses: reduced
E. coli CFT073 [2]; [6]
  bacterial staining, frozen kidney tissue sections: markedly reduced
  neutrophil staining, frozen kidney tissue sections: markedly reduced
[3]; Irf7 siRNA treated mice, as stated in Example 5
  pathology-associated gene expression: absence
[3]; [7]
  Tlr4 expression: activated
  expression of pro-inflammatory genes and transcriptional regulators (chemokines, Irf7, Stat3, Jun): suppressed
[3]; kidneys of siRNA treated Irf3−/− mice
  transcript levels overall and of pathology-associated genes (Stat3, S100a8, Cxcl2, Junb): suppressed
STAT3
  submucosal STAT3 staining: reduced; also recorded: inhibited
E. coli CFT073 [1]; [8]
  effect compared with 100 mg/kg of Cefotaxime: similar
  effect compared with 400 mg/kg of Cefotaxime: lower
E. coli CFT073 [1]; [9]
  bacterial counts in urine (bacterial clearance): lower
  neutrophil numbers in urine (magnitude of the neutrophil infiltrate): reduced
E. coli CFT073 [1]; siRNA 24 hours and 4 days after infection, 7 days, listed as SiRNA
  neutrophil numbers in urine (magnitude of the neutrophil infiltrate): significantly reduced
E. coli CFT073 [1]; 7 days after infection
  number (frequency) of abscesses: reduced
E. coli CFT073 [1]; 7 days after infection, listed as SiRNA
  number (frequency) of abscesses: significantly reduced
IRF-7
  mucosal IRF-7 expression (staining) in renal pelvic mucosa: Suppression; also recorded: Inhibition
IRF-7; listed as siRNA
  mucosal IRF-7 expression (staining) in renal pelvic mucosa: Reduced
